Data from US11298363B2, “Triazolobenzazepines as vasopressin V1a receptor antagonists” (RICHTER GEDEON NYRT., priority 2017, dated 2022).
Structures can show the parent of a compound that is named as a salt.

Assays:
[1] = molecular target: T1, human vasopressin V1a receptor (Homo sapiens, UniProt P37288); experiment: Human vasopressin V1a receptor binding assay; conditions: 1321N1 cell membranes, [3H]vasopressin; read-out: Ki (nM) on hV1a cell line
Procedure: Human Vasopressin V1a Receptor Binding Assay
Cells were suspended in preparative buffer (50 mM Tris, 1 mM EDTA, 0.1 mM PMSF) and homogenized with glass homogenizing potter. To separate the raw membrane fraction two consecutive centrifugation procedures (40,000 g for 20 minutes at 4° C.) were executed, then the membrane was taken into the preparatory buffer during a final washing step, it was divided into aliquots which were stored at −80° C. until the time of measurement.
To determine the final affinity value, the results of at least two independent experiments were taken into account.
Non-specific binding values were determined in the presence of unlabeled 1.2×10^−6 M (Arg^8)-vasopressin. Samples were incubated in a total volume of 0.33 ml for 60 minutes at 27° C. Membrane-bound and free ligands were separated by filtration through a 0.5% polyethyleneimine-impregnated UniFilter® GF/B™. After drying the filter plates, 40 μl Microscint-20 (Packard) scintillation cocktail was added to the samples. Finally, radioactivity was measured using MicroBeta^2 Microplate Counter (Perkin Elmer).
During fitting, the asymptotes are not fixed. The K values (inhibition constant) are given with Cheng-Prusoff equation Ki=IC50/[1+(L/KD)] wherein [L] is the radioligand concentration used in the experiment and [KD] is the affinity of the radioactively labelled ligand for the given receptor. The KD is determined beforehand using the Scatchard curve.

[2] = molecular target: T1, human vasopressin V1a receptor; experiment: Functional assay on human vasopressin V1a receptor expressing cell line (intracellular Ca2+ fluorescence); format: cell-based; conditions: 1321N1 cells, (Arg8)-vasopressin at EC80; read-out: IC50 (nM) on hV1a cell line
Procedure: Functional Assay to Test Compounds on Human Vasopressin V1a Receptor Expressing Cell Line
The ordinary secondary messenger pathway of the measured GPCR receptor was used, the endogenous Gq-associated system.
Using 30,000 cells/plate, compounds were measured on 96-well plates. The buffer composition of the measurements was the following (expressed in mM): 140 NaCl, 5 KCl, 2 CaCl2), 2 MgCl2, 10 glucose, 10 HEPES (4-(2-hydroxyethyl)-1-piperazine-ethanesulfonic acid), 2 probenecid, pH=7.4. FLIPR Calcium 5 kit (Molecular Devices) was used as fluorescent dye, the medium was not removed prior to filling with the dye and the cells were not washed out either before or after. The incubation was performed at room temperature, the final concentration of DMSO was 1%. The materials to be measured were administered in 15 to 20 minutes pretreatment, at least two parallels of each compound in each concentration was measured.
Fluorescence signal was used to determine the intracellular Ca^2+ level, the reader was FlexStation II96. […] The fluorescence signal was logged in every 1.4 seconds for 1 minute. The reference compounds used were the following: (Arg^8)-vasopressin as agonist at concentration of EC80, determined for each plate, and relcovaptan as antagonist at 1 μM. The % of inhibition at each concentration and the IC50 value of the compounds were determined where a concentration line was also measured.
The total AVP concentration-response curve was recorded on each plate. The effect of compounds measured was expressed by percentage of relative inhibition compared to control response. […] The average IC50 values were calculated from at least three independent measurements in all cases.

T1 sequence (P37288 whole entry): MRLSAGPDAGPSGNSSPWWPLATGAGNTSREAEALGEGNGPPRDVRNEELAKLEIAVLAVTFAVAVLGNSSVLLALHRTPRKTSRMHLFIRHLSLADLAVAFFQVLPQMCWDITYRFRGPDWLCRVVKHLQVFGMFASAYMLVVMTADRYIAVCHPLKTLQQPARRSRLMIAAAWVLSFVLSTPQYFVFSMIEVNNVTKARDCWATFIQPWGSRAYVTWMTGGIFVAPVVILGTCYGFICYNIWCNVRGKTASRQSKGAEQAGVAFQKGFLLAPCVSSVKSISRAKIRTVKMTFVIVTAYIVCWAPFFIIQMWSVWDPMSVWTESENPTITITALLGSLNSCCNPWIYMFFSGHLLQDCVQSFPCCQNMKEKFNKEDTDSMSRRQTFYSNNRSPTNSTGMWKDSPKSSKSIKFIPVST

| SMILES | Ki [1] [nM] | IC50 [2] [nM] |
| --- | --- | --- |
| O=C([C@H]1CC[C@H](c2nnc3n2-c2ccc(Cl)cc2CC2(C3)OCCO2)CC1)N1CCCC1 [Example 70, [Trans-4-(8′-chloro-4′H,6′H-spiro[1,3-dioxolane-2,5′-[1,2,4]triazolo[4,3-a][1]benzazepine]-1′-yl)cyclohexyl](pyrrolidin-1-yl)methanone] | 0.4 | 1.2 |
| O=C1Cc2cc(Cl)ccc2-n2c(nnc2[C@H]2CC[C@H](C(F)(F)F)CC2)C1 [Example 71, 8-chloro-1-[trans-4-(trifluoromethyl)cyclohexyl]-4H-[1,2,4]triazolo[4,3-a][1]benzazepin-5(6H)-one] | 14 | 22 |
| OC1Cc2cc(Cl)ccc2-n2c(nnc2[C@H]2CC[C@H](C(F)(F)F)CC2)C1 (stereo partly drawn) [Example 72, 8-chloro-1-[trans-4-(trifluoromethyl)cyclohexyl]-5,6-dihydro-4H-[1,2,4]triazolo[4,3-a][1]benzazepine-5-ol] | 7.5 | 21 |
| CN1C[C@]2(CC[C@H](c3nnc4n3-c3ccc(Cl)cc3CC3(C4)OCCO3)CC2)OC1=O [Example 73, (cis)-8-(8′-chloro-4′H,6′H-spiro[1,3-dioxolane-2,5′-[1,2,4]triazolo[4,3-a][1]benzazepine]-1′-il)-3-methyl-1-oxa-3-azaspiro[4.5]decan-2-one] | 1.6 | 3.3 |
| CN1C[C@]2(CC[C@@H](c3nnc4n3-c3ccc(Cl)cc3CC3(C4)OCCO3)CC2)OC1=O [Example 75, (trans)-8-(8′-chloro-4′H, 6′H-spiro[1,3-dioxolane-2,5′-[1,2,4]triazolo[4,3-a][1]benzazepin]-1′-yl)-3-methyl-1-oxa-3-azaspiro[4.5]decan-2-one] | 3.7 | 10.4 |
| CN([C@H]1Cc2cc(Cl)ccc2-n2c(nnc2[C@H]2CC[C@H](Oc3ccccn3)CC2)C1)S(C)(=O)=O [Example 76, N-{(5S)-8-chloro-1-[trans-4-(pyridin-2-yloxy)cyclohexyl]-5,6-dihydro-4H-[1,2,4]triazolo[4,3-a][1]benzazepin-5-yl}-N-methylmethanesulfonamide] | 1.1 | 2.2 |
| CCN[C@H]1Cc2cc(Cl)ccc2-n2c(nnc2[C@H]2CC[C@H](Oc3ccccn3)CC2)C1 [Example 77, (5S)-8-chloro-N-ethyl-1-[trans-4-(pyridin-2-yloxy)cyclohexyl]-5,6-dihydro-4H-[1,2,4]triazolo[4,3-a][1]benzazepine-5-amine] | 1.9 | 18 |
| CN[C@H]1Cc2cc(Cl)ccc2-n2c(nnc2[C@H]2CC[C@H](Oc3ccccn3)CC2)C1 [Example 78, (5S)-8-chloro-N-methyl-1-[trans-4-(pyridin-2-yloxy)cyclohexyl]-5,6-dihydro-4H-[1,2,4]triazolo[4,3-a][1]benzazepine-5-amine] | 1.7 | 12 |
| Clc1ccc2c(c1)CC1(Cc3nnc(C4CN(c5ncccn5)C4)n3-2)OCCO1 [Example 79] | 71 | 1860 |
| O=C(N[C@H]1Cc2cc(Cl)ccc2-n2c(nnc2[C@H]2CC[C@H](Oc3ccccn3)CC2)C1)c1ccc(F)cc1 [Example 80] | 58 | 520 |
| FC(F)(F)[C@H]1CC[C@H](c2nnc3n2-c2ccc(Br)cc2CC2(C3)OCCO2)CC1 [Example 81, 8′-bromo-1′-[trans-4-(trifluoromethyl)cyclohexyl]-4′H,6′H-spiro[1,3-dioxolane-2,5′-[1,2,4]triazolo[4,3-a][1]benzazepine]] | 0.2 | 1.4 |
| CC(C)NC1Cc2cc(C#N)ccc2-n2c(nnc2[C@H]2CC[C@H](Oc3ccccn3)CC2)C1 (stereo partly drawn) [Example 82, 5-(propan-2-ylamino)-1-[trans-4-(pyridin-2-yloxy)cyclohexyl]-5,6-dihydro-4H-[1,2,4]triazolo[4,3-a][1]benzazepin-8-carbonitrile trifluoroacetate] | 29 | 445 |
| Fc1ccc(CN[C@H]2Cc3cc(Cl)ccc3-n3c(nnc3[C@H]3CC[C@H](Oc4ccccn4)CC3)C2)cc1 [Example 83, (S-8-chloro-N-4-fluorobenzyl)-1-[trans-4-pyridin-2-loxcyclohexyl]-5,6-dihydro-4H-[1,2,4]triazolo[4,3-a][1]benzazepine-5-amine] | 4.4 | 44 |
| N#Cc1ccc2c(c1)CC1(Cc3nnc([C@H]4CC[C@H](C(F)(F)F)CC4)n3-2)OCCO1 [Example 84, 1′-[trans-4-(trifluoromethyl)cyclohexyl]-4′H,6′H-spiro[1,3-dioxolane-2,5′-[1,2,4]triazolo[4,3-a][1]benzazepine]-8′-carbonitrile] | 11.4 | 72 |
| O=C([C@H]1CC[C@H](c2nnc3n2-c2ccc(Br)cc2CC2(C3)OCCO2)CC1)N1CCCCC1 [Example 85, [Trans-4-(8′-bromo-4′H,6′H-spiro[1,3-dioxolane-2,5′-[1,2,4]triazolo[4,3-a][1]benzazepin]-1′-yl)cyclohexyl](piperidin-1-yl)methanone] | 0.4 | 1.8 |
| COC(=O)[C@H]1CC[C@H](c2nnc3n2-c2ccc(Br)cc2CC(=O)C3)CC1 [Example 86, methyl trans-4-(8-bromo-5-oxo-5,6-dihydro-4H-[1,2,4]triazolo[4,3-a][1]benzazepin-1-yl)cyclohexane carboxylate] | 2.2 | 12 |
| O=C1Cc2cc(Br)ccc2-n2c(nnc2[C@H]2CC[C@H](C(=O)N3CCCCC3)CC2)C1 [Example 87, 8-bromo-1-[trans-4-(piperidin-1-ylcarbonyl)cyclohexyl]-4H-[1,2,4]triazolo[4,3-a][1]benzazepin-5(6H)-one] | 2.5 | 57 |
| N#Cc1ccc2c(c1)CC1(Cc3nnc([C@H]4CC[C@H](C(=O)N5CCCCC5)CC4)n3-2)OCCO1 [Example 90, 1′-[trans-4-(piperidin-1-ylcarbonyl)cyclohexyl]-4′H,6′H-spiro[1,3-dioxolane-2,5′-[1,2,4]triazolo[4,3-a][1]benzazepin]-8′-carbonitrile] | 10.2 | 152 |
| O=C1Cc2cc(Br)ccc2-n2c(nnc2[C@H]2CC[C@H](C(F)(F)F)CC2)C1 [Example 91, 8-bromo-1-[trans-4-(trifluoromethyl)cyclohexyl]-4H-[1,2,4]triazolo[4,3-a][1]benzazepin-5(6H)-one] | 9.1 | 45 |
| O=C([C@H]1CC[C@H](c2nnc3n2-c2ccc(Br)cc2CC(O)C3)CC1)N1CCCCC1 (stereo partly drawn) [Example 92, [Trans-4-(8-bromo-5-hydroxy-5,6-dihydro-4H-[1,2,4]triazolo[4,3-a][1]benzazepin-1-yl)cyclohexyl](piperidin-1-yl)methanone] | 1.9 | 16 |
| OC1Cc2cc(Br)ccc2-n2c(nnc2[C@H]2CC[C@H](C(F)(F)F)CC2)C1 (some centres unmarked) [Example 93] | 3.2 | 16 |
| Clc1ccc2c(c1)CC1(Cc3nnc(N4CCC(N5CCCCC5)CC4)n3-2)OCCO1 [Example 94, 1′-(1,4′-bipiperidin-1′-yl)-8′-chloro-4′H,6′H-spiro[1,3-dioxolane-2,5′-[1,2,4]triazolo[4,3-a][1]benzazepine]] | 2 | 23 |
